According to PubChem BioAssay AID1963979 (Molecular Pharmacology Branch, DTP, NCI, 2024):

Tested on: 361931-004-R-J1-PDC multicell spheroid viability
Assay: Anticancer human tumor 361931-004-R-J1-PDC patient-derived colon adenocarcinoma cell line growth inhibition [PI3K]
Conditions: for IC50: curve of first compound; for viability, T/C: stronger effect = lower value
From the text: Combinatorial screen of targeted agents with the PI3K inhibitors inavolisib, alpelisib, duvelisib, and copanlisib in multi-cell type tumor spheroids
A high-throughput screen of multi-cell type tumor spheroids was designed to identify active combinations of targeted small molecules and PI3K pathway inhibitors. Complex spheroids include a stromal component modeled by human endothelial cells (HUVEC) and fibroblasts modeled by human mesenchymal stem cells (MSCs). The concentration ranges selected for each drug and investigational agent were based upon clinically achievable concentrations if the clinical Cmax of the agent was known.
Compounds. The drugs and investigational agents: inavolisib (NSC800729), alpelisib (NSC765974), duvelisib (NSC772469), copanlisib (NSC816437), ipatasertib (NSC767898), afuresertib (NSC778305), talazoparib (NSC767125), sapanisertib (NSC764658), selumetinib (NSC741078), tovorafenib (DAY101, NSC766906), vemurafenib (NSC761431), ravoxertinib (NSC781343), sotorasib (NSC818433), MRTX1133 (NSC 836407), abemaciclib (NSC 768073), palbociclib (NSC758247), venetoclax (NSC 766270), SY5609 (NSC837396), enzalutamide (NSC755605), and darolutamide (NSC825331), were obtained from the National Cancer Institute (NCI) Developmental Therapeutics Program Chemical Repository. The FDA-approved anticancer drug set is available from the NCI Developmental Therapeutics Program. […] The stock solutions were prepared in dimethyl sulfoxide (DMSO, Sigma-Aldrich, St. Louis, MO, cat. D2650) at 800-fold the tested concentration and stored at -70 degrees C prior to their use. All drugs and investigational agents were tested over a range starting from a high concentration at or near the clinical Cmax and decreasing in half-log increments. If the clinical Cmax for an agent had not been determined, the highest concentration tested was 10 microM.
Cell Culture. All cells were maintained in an incubator at 37 degrees C and 5% CO2 with 95% humidity. The PDC lines were cultured according to standard operating procedures established by the NCI PDMR (https://pdmr.cancer.gov/sops/default.htm). All PDCs were thawed and cultured in Matrigel-coated flasks prepared with a working solution of 1X Ham's F-12 nutrient mix, without supplementation (Invitrogen, Waltham, MA, cat. 11765054), 100 U/mL penicillin-streptomycin (Invitrogen, cat. 15140122), and 2.5% Matrigel (Corning Inc., Corning, NY, cat. 354248) for the first three passages. The 354836-022-R-J1-PDC, 475296-252-R-J1-PDC, and 997726-040-R-J2-PDC lines were cultured in 6A media, which includes advanced DMEM/F-12 (Thermo Fisher Scientific, cat. 12634028), 10 mM HEPES (Thermo Fisher Scientific, cat. 15630080), 1X GlutaMAX supplement (Thermo Fisher Scientific, cat. 35050061), 0.1 mg/mL primocin (InvivoGen, San Diego, CA, cat. ant-pm-2), 10% defined fetal bovine serum, heat inactivated (HyClone Laboratories Inc., Logan, UT, cat. SH30070.03HI), 50% L-WRN conditioned media (ATCC, cat. CRL-3276), 1.25 mM N-Acetyl-L-cysteine (Sigma-Aldrich, cat. A9165), 10 mM nicotinamide (Sigma-Aldrich, cat. N0636), 1X B-27 supplement (Thermo Fisher Scientific, cat. 17504044), 1X N-2 supplement (Thermo Fisher Scientific, cat. 17502048), and 10 microM Y-27632 dihydrochloride (Tocris Bioscience, Bristol, United Kingdom, cat. 1254). The 624824-186-R-J2-PDC line was cultured in 6C/Colon 1B media, which includes all 6A media components plus 50 ng/mL human EGF recombinant protein (Thermo Fisher Scientific, cat. PHG0311). […]

[1] = second compound 0.0316 µM, first compound 0.0316 µM
[2] = second compound 0.0316 µM, first compound 0.1 µM
[3] = second compound 0.0316 µM, first compound 0.316 µM
[4] = second compound 0.0316 µM, first compound 1 µM
[5] = second compound 0.0316 µM, first compound 3.16 µM
[6] = second compound 0.0316 µM, first compound 10 µM
[7] = second compound 0.1 µM, first compound 0.0316 µM
[8] = second compound 0.1 µM, first compound 0.1 µM
[9] = second compound 0.1 µM, first compound 0.316 µM
[10] = second compound 0.1 µM, first compound 1 µM
[11] = second compound 0.1 µM, first compound 3.16 µM
[12] = second compound 0.1 µM, first compound 10 µM
[13] = second compound 0.316 µM, first compound 0.0316 µM
[14] = second compound 0.316 µM, first compound 0.1 µM
[15] = second compound 0.316 µM, first compound 0.316 µM
[16] = second compound 0.316 µM, first compound 1 µM
[17] = second compound 0.316 µM, first compound 3.16 µM
[18] = second compound 0.316 µM, first compound 10 µM
[19] = second compound 1 µM, first compound 0.0316 µM
[20] = second compound 1 µM, first compound 0.1 µM
[21] = second compound 1 µM, first compound 0.316 µM
[22] = second compound 1 µM, first compound 1 µM
[23] = second compound 1 µM, first compound 3.16 µM
[24] = second compound 1 µM, first compound 10 µM
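Also: spheroids exposed to agents for seven days before readout.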

Which results are given for C=CC(=O)N1CCN(c2nc(=O)n(-c3c(C)ccnc3C(C)C)c3nc(-c4c(O)cccc4F)c(F)cc23)C(C)C1 (centres undefined) + CC(Nc1ccc2c(c1)OCCn1cc(N3C(=O)OCC3C(F)F)nc1-2)C(N)=O?
IC50 (second compound 0.00316 µM): > 10 µM; IC50 (second compound 0.01 µM): > 10 µM; IC50 (second compound 0.0316 µM): > 10 µM; IC50 (second compound 0.1 µM): > 10 µM; IC50 (second compound 0.316 µM): > 10 µM; IC50 (second compound 1 µM): > 10 µM; viability, T/C (second compound 0.00316 µM, first compound 0.0316 µM): 99.7%; viability, T/C (second compound 0.00316 µM, first compound 0.1 µM): 103%; viability, T/C (second compound 0.00316 µM, first compound 0.316 µM): 101%; viability, T/C (second compound 0.00316 µM, first compound 1 µM): 92.7%; viability, T/C (second compound 0.00316 µM, first compound 3.16 µM): 99.8%; viability, T/C (second compound 0.00316 µM, first compound 10 µM): 81.2%; viability, T/C (second compound 0.01 µM, first compound 0.0316 µM): 107%; viability, T/C (second compound 0.01 µM, first compound 0.1 µM): 100%; viability, T/C (second compound 0.01 µM, first compound 0.316 µM): 99.5%; viability, T/C (second compound 0.01 µM, first compound 1 µM): 99.5%; viability, T/C (second compound 0.01 µM, first compound 3.16 µM): 106%; viability, T/C (second compound 0.01 µM, first compound 10 µM): 89.8%; viability, T/C [1]: 104%; viability, T/C [2]: 103%; viability, T/C [3]: 99.2%; viability, T/C [4]: 97.5%; viability, T/C [5]: 97%; viability, T/C [6]: 76.2%; viability, T/C [7]: 97.4%; viability, T/C [8]: 91.6%; viability, T/C [9]: 96.9%; viability, T/C [10]: 101%; viability, T/C [11]: 93.5%; viability, T/C [12]: 72.2%; viability, T/C [13]: 88.7%; viability, T/C [14]: 84.7%; viability, T/C [15]: 81.6%; viability, T/C [16]: 89.4%; viability, T/C [17]: 86%; viability, T/C [18]: 66%; viability, T/C [19]: 75.5%; viability, T/C [20]: 78.2%; viability, T/C [21]: 80%; viability, T/C [22]: 80.1%; viability, T/C [23]: 86.7%; viability, T/C [24]: 59.4%

For Cn1nccc1Nc1nccc(-c2ccn(C(CO)c3ccc(Cl)c(F)c3)c(=O)c2)n1 (centres undefined) + CC(Nc1ncnc2nc[nH]c12)c1cc2cccc(Cl)c2c(=O)n1-c1ccccc1, which IC50 (second compound 0.0316 µM) is on record?
Its IC50 is over 10 µM.

What about the IC50 (second compound 0.1 µM) of the same compound?
The IC50 was over 10 µM.

And the IC50 (second compound 0.316 µM)?
Its IC50 is over 10 µM.

And the IC50 (second compound 1 µM)?
The IC50 was over 10 µM.

And the IC50 (second compound 3.16 µM)?
The IC50 was 9.79 µM.

And the IC50 (second compound 10 µM)?
Its IC50 is 5.14 µM.

What about the viability, T/C [1] of the same compound?
The viability, T/C was 101%.

And the viability, T/C [2]?
Its viability, T/C is 98.8%.

And the viability, T/C [3]?
The viability, T/C was 100%.

What about the viability, T/C [4] of the same compound?
Its viability, T/C is 97.7%.

What about the viability, T/C [5] of the same compound?
The viability, T/C was 87.9%.

And the viability, T/C [6]?
Its viability, T/C is 60.2%.

And the viability, T/C [7]?
Its viability, T/C is 101%.

What about the viability, T/C [8] of the same compound?
Its viability, T/C is 99.4%.

And the viability, T/C [9]?
Its viability, T/C is 97%.

What about the viability, T/C [10] of the same compound?
The viability, T/C was 93.2%.

And the viability, T/C [11]?
Its viability, T/C is 86.7%.

And the viability, T/C [12]?
The viability, T/C was 65.2%.

And the viability, T/C [13]?
Its viability, T/C is 107%.

And the viability, T/C [14]?
Its viability, T/C is 107%.

What about the viability, T/C [15] of the same compound?
The viability, T/C was 86.5%.

What about the viability, T/C [16] of the same compound?
Its viability, T/C is 93.8%.

And the viability, T/C [17]?
The viability, T/C was 89.4%.

And the viability, T/C [18]?
Its viability, T/C is 61.3%.

And the viability, T/C [19]?
The viability, T/C was 109%.

What about the viability, T/C [20] of the same compound?
Its viability, T/C is 99.5%.

What about the viability, T/C [21] of the same compound?
Its viability, T/C is 99.3%.

And the viability, T/C [22]?
Its viability, T/C is 90.8%.

What about the viability, T/C [23] of the same compound?
Its viability, T/C is 92.6%.

What about the viability, T/C [24] of the same compound?
The viability, T/C was 56.5%.

And the viability, T/C (second compound 3.16 µM, first compound 0.0316 µM)?
The viability, T/C was 107%.

What about the viability, T/C (second compound 3.16 µM, first compound 0.1 µM) of the same compound?
The viability, T/C was 105%.

And the viability, T/C (second compound 3.16 µM, first compound 0.316 µM)?
The viability, T/C was 100%.

What about the viability, T/C (second compound 3.16 µM, first compound 1 µM) of the same compound?
Its viability, T/C is 92.2%.

And the viability, T/C (second compound 3.16 µM, first compound 3.16 µM)?
Its viability, T/C is 87.1%.

And the viability, T/C (second compound 3.16 µM, first compound 10 µM)?
The viability, T/C was 48.3%.

And the viability, T/C (second compound 10 µM, first compound 0.0316 µM)?
Its viability, T/C is 109%.

What about the viability, T/C (second compound 10 µM, first compound 0.1 µM) of the same compound?
Its viability, T/C is 99.5%.

What about the viability, T/C (second compound 10 µM, first compound 0.316 µM) of the same compound?
Its viability, T/C is 92.1%.

What about the viability, T/C (second compound 10 µM, first compound 1 µM) of the same compound?
The viability, T/C was 83.8%.

What about the viability, T/C (second compound 10 µM, first compound 3.16 µM) of the same compound?
The viability, T/C was 64.1%.

And the viability, T/C (second compound 10 µM, first compound 10 µM)?
The viability, T/C was 31.4%.
